Tested on: 556581-035-R-J1-PDC complex spheroid growth
Assay: Anticancer human tumor 556581-035-R-J1-PDC patient-derived ovarian carcinoma cell line growth inhibition [AhR]
Conditions: for IC50: curve of first compound; for viability, T/C: stronger effect = lower value
In short: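 Spheroids combined tumor cells with HUVEC endothelial cells and human MSCs as stroma. AhR antagonists were paired with standard or investigational drugs, each dosed in half-log steps down from near clinical Cmax, or from 10 microM where Cmax was unknown.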

[1] = second compound 0.1 µM, first compound 0.00316 µM
[2] = second compound 0.1 µM, first compound 0.01 µM
[3] = second compound 0.1 µM, first compound 0.0316 µM
[4] = second compound 0.1 µM, first compound 0.1 µM
[5] = second compound 0.316 µM, first compound 0.00316 µM
[6] = second compound 0.316 µM, first compound 0.01 µM
[7] = second compound 0.316 µM, first compound 0.0316 µM
[8] = second compound 0.316 µM, first compound 0.1 µM
[9] = second compound 1 µM, first compound 0.00316 µM
[10] = second compound 1 µM, first compound 0.01 µM
[11] = second compound 1 µM, first compound 0.0316 µM
[12] = second compound 1 µM, first compound 0.1 µM
[13] = second compound 3.16 µM, first compound 0.00316 µM
[14] = second compound 3.16 µM, first compound 0.01 µM
[15] = second compound 3.16 µM, first compound 0.0316 µM
[16] = second compound 3.16 µM, first compound 0.1 µM
[17] = second compound 10 µM, first compound 0.00316 µM
[18] = second compound 10 µM, first compound 0.01 µM
[19] = second compound 10 µM, first compound 0.0316 µM
[20] = second compound 10 µM, first compound 0.1 µM
[21] = second compound 0.1 µM, first compound 0.316 µM
[22] = second compound 0.1 µM, first compound 1 µM
[23] = second compound 0.1 µM, first compound 3.16 µM
[24] = second compound 0.1 µM, first compound 10 µM
[25] = second compound 0.316 µM, first compound 0.316 µM
[26] = second compound 0.316 µM, first compound 1 µM
[27] = second compound 0.316 µM, first compound 3.16 µM
[28] = second compound 0.316 µM, first compound 10 µM
[29] = second compound 1 µM, first compound 0.316 µM
[30] = second compound 1 µM, first compound 1 µM
[31] = second compound 1 µM, first compound 3.16 µM
[32] = second compound 1 µM, first compound 10 µM
[33] = second compound 3.16 µM, first compound 0.316 µM
[34] = second compound 3.16 µM, first compound 1 µM
[35] = second compound 3.16 µM, first compound 3.16 µM
[36] = second compound 3.16 µM, first compound 10 µM
[37] = second compound 10 µM, first compound 0.316 µM
[38] = second compound 10 µM, first compound 1 µM
[39] = second compound 10 µM, first compound 3.16 µM
[40] = second compound 10 µM, first compound 10 µM
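Wherever viability, T/C is given: compound exposure lasted 7 days; 100% = DMSO vehicle control growth.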

CC[C@@]1(O)C(=O)OCc2c1cc1n(c2=O)Cc2cc3c(CN(C)C)c(O)ccc3nc2-1 + Cc1cncc(-c2nc(NCCc3c[nH]c4ccccc34)c3ncn(C(C)C)c3n2)c1
IC50 (second compound 0.1 µM): > 100 nM | IC50 (second compound 0.316 µM): > 100 nM | IC50 (second compound 1 µM): > 100 nM | IC50 (second compound 3.16 µM): > 100 nM | IC50 (second compound 10 µM): > 100 nM | viability, T/C (second compound 0.1 µM, first compound 0.000316 µM): 114% | viability, T/C (second compound 0.1 µM, first compound 0.001 µM): 110% | viability, T/C [1]: 105% | viability, T/C [2]: 97.6% | viability, T/C [3]: 85% | viability, T/C [4]: 64.3% | viability, T/C (second compound 0.316 µM, first compound 0.000316 µM): 108% | viability, T/C (second compound 0.316 µM, first compound 0.001 µM): 115% | viability, T/C [5]: 109% | viability, T/C [6]: 97.4% | viability, T/C [7]: 90.2% | viability, T/C [8]: 62.3% | viability, T/C (second compound 1 µM, first compound 0.000316 µM): 117% | viability, T/C (second compound 1 µM, first compound 0.001 µM): 115% | viability, T/C [9]: 105% | viability, T/C [10]: 95% | viability, T/C [11]: 83.4% | viability, T/C [12]: 57.9% | viability, T/C (second compound 3.16 µM, first compound 0.000316 µM): 95.3% | viability, T/C (second compound 3.16 µM, first compound 0.001 µM): 101% | viability, T/C [13]: 104% | viability, T/C [14]: 101% | viability, T/C [15]: 81.3% | viability, T/C [16]: 62.6% | viability, T/C (second compound 10 µM, first compound 0.000316 µM): 99.8% | viability, T/C (second compound 10 µM, first compound 0.001 µM): 103% | viability, T/C [17]: 99.3% | viability, T/C [18]: 88.1% | viability, T/C [19]: 76.9% | viability, T/C [20]: 67.2%

COc1cc(C2c3cc4c(cc3C(OC3OC5COC(C)OC5C(O)C3O)C3COC(=O)C23)OCO4)cc(OC)c1O (stereo not given) + Cc1cncc(-c2nc(NCCc3c[nH]c4ccccc34)c3ncn(C(C)C)c3n2)c1
IC50 (second compound 0.1 µM): 8380 nM | IC50 (second compound 0.316 µM): 5930 nM | IC50 (second compound 1 µM): 5940 nM | IC50 (second compound 3.16 µM): 7000 nM | IC50 (second compound 10 µM): > 10000 nM | viability, T/C [3]: 97.9% | viability, T/C [4]: 97.9% | viability, T/C [21]: 87.4% | viability, T/C [22]: 72.4% | viability, T/C [23]: 62.2% | viability, T/C [24]: 47.4% | viability, T/C [7]: 94% | viability, T/C [8]: 107% | viability, T/C [25]: 88.8% | viability, T/C [26]: 75.9% | viability, T/C [27]: 65.3% | viability, T/C [28]: 39% | viability, T/C [11]: 95.6% | viability, T/C [12]: 103% | viability, T/C [29]: 92.8% | viability, T/C [30]: 78.8% | viability, T/C [31]: 59% | viability, T/C [32]: 42.9% | viability, T/C [15]: 96.7% | viability, T/C [16]: 92.5% | viability, T/C [33]: 89.2% | viability, T/C [34]: 72.4% | viability, T/C [35]: 64.7% | viability, T/C [36]: 43.7% | viability, T/C [19]: 83.7% | viability, T/C [20]: 76.8% | viability, T/C [37]: 78.2% | viability, T/C [38]: 73.8% | viability, T/C [39]: 62.9% | viability, T/C [40]: 50.6%

COc1cccc2c1C(=O)c1c(O)c3c(c(O)c1C2=O)CC(O)(C(=O)CO)CC3OC1CC(N)C(O)C(C)O1 (stereo not given) + Cc1cncc(-c2nc(NCCc3c[nH]c4ccccc34)c3ncn(C(C)C)c3n2)c1
IC50 (second compound 0.1 µM): 382 nM | IC50 (second compound 0.316 µM): 380 nM | IC50 (second compound 1 µM): 403 nM | IC50 (second compound 3.16 µM): 349 nM | IC50 (second compound 10 µM): 351 nM | viability, T/C [3]: 87% | viability, T/C [4]: 89.8% | viability, T/C [21]: 58.3% | viability, T/C [22]: 6.64% | viability, T/C [23]: 0.94% | viability, T/C [24]: 1.6% | viability, T/C [7]: 84.8% | viability, T/C [8]: 82.5% | viability, T/C [25]: 58.3% | viability, T/C [26]: 6.48% | viability, T/C [27]: 0.61% | viability, T/C [28]: 2.51% | viability, T/C [11]: 81.9% | viability, T/C [12]: 73.8% | viability, T/C [29]: 62.9% | viability, T/C [30]: 3.27% | viability, T/C [31]: 0.86% | viability, T/C [32]: 2.01% | viability, T/C [15]: 77.7% | viability, T/C [16]: 74.8% | viability, T/C [33]: 54.4% | viability, T/C [34]: 2.38% | viability, T/C [35]: 1.27% | viability, T/C [36]: 3.59% | viability, T/C [19]: 80.8% | viability, T/C [20]: 68.8% | viability, T/C [37]: 54.8% | viability, T/C [38]: 2.24% | viability, T/C [39]: 1.87% | viability, T/C [40]: 3.7%

Nc1ncn(C2CC(O)C(CO)O2)c(=O)n1 (stereo not given) + Cc1cncc(-c2nc(NCCc3c[nH]c4ccccc34)c3ncn(C(C)C)c3n2)c1
IC50 (second compound 0.1 µM): > 1000 nM | IC50 (second compound 0.316 µM): > 1000 nM | IC50 (second compound 1 µM): > 1000 nM | IC50 (second compound 3.16 µM): > 1000 nM | IC50 (second compound 10 µM): > 1000 nM | viability, T/C [1]: 97.2% | viability, T/C [2]: 95.1% | viability, T/C [3]: 106% | viability, T/C [4]: 89% | viability, T/C [21]: 84.8% | viability, T/C [22]: 77.4% | viability, T/C [5]: 102% | viability, T/C [6]: 93.6% | viability, T/C [7]: 90.7% | viability, T/C [8]: 87% | viability, T/C [25]: 93.1% | viability, T/C [26]: 85.6% | viability, T/C [9]: 91.4% | viability, T/C [10]: 105% | viability, T/C [11]: 104% | viability, T/C [12]: 110% | viability, T/C [29]: 92.6% | viability, T/C [30]: 82.2% | viability, T/C [13]: 98.2% | viability, T/C [14]: 95.5% | viability, T/C [15]: 93.6% | viability, T/C [16]: 94.7% | viability, T/C [33]: 88.3% | viability, T/C [34]: 90.2% | viability, T/C [17]: 83.7% | viability, T/C [18]: 78.5% | viability, T/C [19]: 81.6% | viability, T/C [20]: 82% | viability, T/C [37]: 81.8% | viability, T/C [38]: 83.6%

From PubChem BioAssay AID1918999 (Molecular Pharmacology Branch, DTP, NCI, 2023)
